This data set deals with back of a marmot. Briefly: Continuous skin irritation test of retinol. It is filed as in vivo. As to conditions: polar oil blend ratio 8 mass %, 0.2 mass % retinol.

SMILES strings stand for the structures.

Experimental: “Continuous Skin Irritation Test”
0.05 ml of a sample solution containing a lipophilic drug was applied on a 2×2 cm area of the back of a marmot (first application).
24 hours later, the second application was done.
Again, 24 hours later, the third application was done.
Before the second application, before the third application, and 24 hours after the third application, skin reactions such as erythema and edema was observed by naked eye. Evaluation was conducted based on the following criteria, and the average of the three scores was used as the skin reaction score.
Evaluation Criteria of the Skin Reaction

With `CCCCCCCC(=O)OCC(COC(=O)CCCCCCC)(COC(=O)CCCCCCC)COC(=O)CCCCCCC` [pentaerythrityl tetraoctanoate], the “skin irritation suppression effect (retinol), FIG. 9” value is “superior skin irritation suppression effect”.
